This note sets out measurements from patent publication US6362337B1, “Substituted phenyluracils” (Bayer Aktiengesellschaft, priority 1997, dated 2002).

The test system of series [1] is weeds. The series can be described thus: Pre-emergence test, action against weeds. The class given is in vivo. The settings on record: soil sprayed about 24 hours after sowing, rated after three weeks vs untreated control. On the procedure:
(§1) To produce a suitable preparation of active compound, 1 part by weight of active compound is mixed with the stated amount of solvent, the stated amount of emulsifier is added and the concentrate is diluted with water to the desired concentration.
Seeds of the test plants are sown in normal soil. After about 24 hours, the soil is sprayed with the preparation of active compound such that the particular amounts of active compound desired are applied per unit area. The concentration of the spray liquor is chosen so that the particular amounts of active compound desired are applied in 1000 l of water/ha.
(§2) After three weeks, the degree of damage to the plants is rated in % damage in comparison with the development of the untreated control.
(§3) 0%=no effect (like untreated control)

The subject of series [2] is weeds. The series can be described thus: Post-emergence test, action against weeds. The class given is in vivo. Particulars: test plants 5-15 cm sprayed, rated after three weeks vs untreated control. As for the experimental part: as §1
Test plants having a height of 5-15 cm are sprayed with the preparation of active compound such that the particular amounts of active compound desired are applied per unit area. The concentration of the spray liquor is chosen so that the particular amounts of active compound desired are applied in 1000 l of water/ha.
as §2, §3

Consider `CCOC(=O)c1cc(-n2c(=O)cc(C(F)(F)F)[nH]c2=O)ccc1OC(C)=O` [Example 1, 3-(4-acetoxy-3-ethoxycarbonyl-phenyl)-6-trifluoromethyl-1,2,3,4-tetrahydro-1H-pyrimidine-2,4-dione], for which the melting point was 155 °C.

On to `CCOC(=O)c1cc(-n2c(=O)cc(C(F)(F)F)n(C)c2=O)ccc1OC(C)=O` [Example 2, 3-(4-acetoxy-3-ethoxycarbonyl-phenyl)-1-methyl-6-trifluoromethyl-1,2,3,4-tetrahydro-1H-pyrimidine-2,4-dione], for which the melting point was 148 °C. The “action against weeds (degree of damage to the plants)” value (“action against weeds” below) in the series with weeds [1] was “very strong action against weeds”. In the series with weeds [2], the “action against weeds” value was “very strong action against weeds”.

As to `CCOC(=O)c1cc(-n2c(=O)cc(C(F)(F)F)n(N)c2=O)ccc1OC(C)=O` [Example 3, 1-amino-3-(4-acetoxy-3-ethoxycarbonyl-phenyl)-6-trifluoromethyl-1,2,3,4-tetrahydro-1H-pyrimidine-2,4-dione], the melting point is 190 °C. Moreover, the “action against weeds” value with weeds [1] is given as “very strong action against weeds”. For the same molecule, the “action against weeds” value in the series on weeds [2] is on record as “very strong action against weeds”.
